Results taken from publication PMC7211195 (Investigational New Drugs, 2019).
“And” between values parts separate entries of the source, which are not always exact repeats. Equal entries are not always repeated.

Experiment: Lapatinib pharmacokinetics and uptake in rat brain tissue (BT);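 as to BT corr (BT homogenate corrected), single rat: brain concentration corrected for residual brain blood by the Fridén method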;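 as to BT corr (BT homogenate), single rat: brain concentration corrected for residual brain blood by the Fridén method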
Assay type: in vivo, rats
Conditions: for BT corr (BT homogenate), S / BT corr (BT homogenate), single rat: lapatinib 100 mg/kg + elacridar; for BT corr (BT homogenate corrected), single rat: lapatinib p.o. 100 mg/kg alone, 100 mg/kg
Method: This study was conducted on rats, which are a promising model to predict P-gp-based drug-drug interactions at the human BBB [15]. The animals were allowed to acclimate for one week before the beginning of the experiments. Adult male Wistar-strain rats (weight 470–525 g) were used in the study. The animals were maintained under standard breeding conditions with a 12/12 h light-dark cycle (lights on at 6.00 a.m., lights off at 6.00 p.m.) at constant room temperature (23 ± 2 °C), relative humidity (55 ± 10%) and ad libitum access to food and water. The experimental protocol for this study was reviewed and approved by the Local Ethics Committee. To obtain consistent data, the study was based on the required minimum number of animals and observation time. […] Three rats were used at each time point (n = 3). In total, the research was conducted on 66 animals (n = 33 in the experimental group and n = 33 in the control group).
Elacridar was freshly dissolved in a vehicle at an initial concentration of 20 mg/mL. […] A volume of 80 μL of blood was collected from each rat by cutting off a piece of its tail. The blood samples were collected into heparinized test tubes at the following time points: […], and they were immediately centrifuged at 2880 g for 10 min at 4 °C. The anaesthetized rats (anaesthetized by intramuscular administration of 50 mg/kg ketamine and 10 mg/kg xylazine) were prepared for cisterna magna puncture. The hair over the puncture was removed and the skin was disinfected with alcohol. The animals were placed in a recumbent position with an elevated rear part of the body. The animals’ heads were slightly flexed and immobilized with the operator’s left hand. The space between the occiput rostrally and the atlas (C1) of the spinal column caudally was gently palpated with the left thumb. A 0.7 × 20 G needle with polyethylene tubing (Terumo Poland, Warsaw, Poland) was gently inserted at an approximate angle of 80–90° through the skin with the operator’s right hand into the midsagittal region. The moment that dura mater perforation was perceptible, a small amount of CSF was found in the needle tubing. To sample additional CSF, a 1 mL insulin syringe (Becton Dickinson, Warsaw, Poland) was used to collect 80–120 μL of CSF by very gentle aspiration. Only clear CSF was collected for further analysis. […] The animals’ brains were immediately dissected, washed in 0.9% NaCl and divided along the longitudinal axis. One of the brain hemispheres was again rinsed three times with 5 mL of 0.9% NaCl, weighed and homogenized with 0.9% NaCl (4 mL per 1 g of BT) in an Ultra-Turrax homogenizer (Witko, Łódź, Poland). The homogenate was then centrifuged at 4500 g for 10 min. All samples of the rat BP, CSF, and BT homogenate supernatant were stored at −80 °C until analysis.
The chromatographic analysis was conducted using a 1260 Infinity system (Agilent Technologies, Santa Clara, USA) equipped with a Kinetex® C18 column (50 × 4.6 mm, 2.6 μm, Phenomenex, Torrance, USA), which was maintained at 35 °C. The mobile phase consisted of 0.1% formic acid (v/v) in water with 5 mM ammonium formate (solvent A) and acetonitrile with 10% phase A (v/v, solvent B). The analyte and internal standard (IS, erlotinib) were eluted using a gradient run of 10 min as follows: 95% A at 0–2 min; 95%–5% A at 2–4 min; 5% A at 4–5 min; 5%–95% A at 5–6 min; 95% A at 6–10 min. The flow rate and injection volume were set at 0.7 mL/min and 10 μL, respectively. The needle was washed for 30 s in a mixture of acetonitrile, methanol, isopropanol, water, and formic acid (50:20:15:15:0.25, v/v/v/v/v).

For CS(=O)(=O)CCNCc1ccc(-c2ccc3ncnc(Nc4ccc(OCc5cccc(F)c5)c(Cl)c4)c3c2)o1 [lapatinib, N-{3-Chloro-4-[(3-fluorobenzyl)oxy]phenyl}-6-[5-({[2-(methylsulfonyl)ethyl]amino}methyl)-2-furyl]-4-quinazolinamine], the “AUC0-∞ increase by elacridar” value (BT) was 1.9 times, the “Cmax increase in IE+L vs control” value (BT) was 1.55 fold and 1.5 fold and the “Kp decrease in IL+E group vs control” value (BT) was 25%. For the same compound, the “t0.5 longer in the presence of elacridar” value (BT) was 2.5 times, the “AUC0-t increased in IE+L” value (BT, IE+L vs IIL group) was 92.6% and the “AUC0-∞ increase with elacridar” value (BT, IE+L vs IIL group) was 86.5%. For the same compound, the “Cmax increase with elacridar” value (BT, IE+L vs IIL group) was 54.7%, the AUMC0-t (brain tissue, lapatinib 100 mg/kg oral + 5 mg/kg elacridar (IE+L), first AUMC0-t line (r32)) was 16,040.19 ± 2981.02 ng × h^2/mL and the AUMC0-t (brain tissue, lapatinib 100 mg/kg oral + 5 mg/kg elacridar (IE+L), second AUMC0-t line (r33)) was 57,148.33 ± 29,162.29 ng × h^2/mL. For the same compound, the MRT0-t (brain tissue, lapatinib 100 mg/kg oral alone (IIL)) was 5.73 ± 0.06 h, the AUMC0-t (brain tissue, lapatinib 100 mg/kg oral alone (IIL), first AUMC0-t line (r32)) was 4792.63 ± 173.92 ng × h^2/mL and the AUMC0-t (brain tissue, lapatinib 100 mg/kg oral alone (IIL), second AUMC0-t line (r33)) was 17,455.77 ± 17,542.73 ng × h^2/mL. The “BT corr (BT homogenate), S” value (0.25 h) was 33.08 ng/mL, the “BT corr (BT homogenate), single rat” value (0.25 h) was 35.46 ng/mL and the “BT corr (BT homogenate), single rat” value (0.25 h, listed as Lapatinib) was 35.46 ng/mL. The “BT corr (BT homogenate), S” value (0.5 h) was 43.57 ng/mL, the “BT corr (BT homogenate), single rat” value (0.5 h) was 41.98 ng/mL and the “BT corr (BT homogenate), single rat” value (0.5 h, listed as Lapatinib) was 41.98 ng/mL. For the same compound, the “BT corr (BT homogenate), single rat” value (2 h) was 39.78 ng/mL and 102.9 ng/mL, the “BT corr (BT homogenate), single rat” value (2 h, listed as Lapatinib) was 39.78 ng/mL and 102.90 ng/mL and the “BT corr (BT homogenate), S” value (3 h) was 197.6723 ng/mL. For the same compound, the “BT corr (BT homogenate), single rat” value (3 h) was 170.09 ng/mL and 225.26 ng/mL, the “BT corr (BT homogenate), single rat” value (3 h, listed as Lapatinib) was 225.26 ng/mL and the “BT corr (BT homogenate), S” value (4 h) was 85.05 ng/mL. The “BT corr (BT homogenate), single rat” value (4 h) was 91.94 ng/mL, the “BT corr (BT homogenate), S” value (6 h) was 85.7722 ng/mL and the “BT corr (BT homogenate), single rat” value (6 h) was 84.2 ng/mL. The “BT corr (BT homogenate), single rat” value (6 h, listed as Lapatinib) was 84.20 ng/mL, the “BT corr (BT homogenate), S” value (8 h) was 85.02 ng/mL and the “BT corr (BT homogenate), single rat” value (12 h) was 45.12 ng/mL. For the same compound, the “BT corr (BT homogenate), single rat” value (12 h, listed as Lapatinib) was 45.12 ng/mL, the “BT corr (BT homogenate), S” value (24 h) was 44.69 ng/mL and the “BT corr (BT homogenate), single rat” value (24 h) was 36.68 ng/mL. The “BT corr (BT homogenate), single rat” value (24 h, listed as Lapatinib) was 36.68 ng/mL, the “BT corr (BT homogenate corrected), single rat” value (0.25 h) was 33.26 ng/mL and the “BT corr (BT homogenate corrected), single rat” value (0.25 h, listed as Lapatinib) was 33.26 ng/mL. For the same compound, the “BT corr (BT homogenate corrected), single rat” value (0.5 h) was 39.02 ng/mL and the “BT corr (BT homogenate corrected), single rat” value (0.5 h, listed as Lapatinib) was 39.02 ng/mL.
